{"source": "paper PMC6150792", "about": "(Pain, 2018)", "key": {"[1]": {"tested_on": "CRMP2 residue S522 phosphorylation by Cdk5", "conditions": "ref [66]; cited from earlier work"}, "[2]": {"tested_on": "model of postoperative, neuropathic, pain, and cephalic pain", "conditions": "ref [63], [65]; cited from earlier work"}, "[3]": {"tested_on": "presynaptic N-type voltage-gated calcium channels", "conditions": "ref [66]; cited from earlier work"}, "[4]": {"tested_on": "cytosolic Na+ in cultured DRG neurons", "test": "Sodium fluorescence imaging", "format": "cell-based, rat"}, "[5]": {"tested_on": "SUMOylation", "conditions": "cited from earlier work"}, "[6]": {"tested_on": "naïve male SD rats"}, "[7]": {"tested_on": "humans", "conditions": "current clinically used medication; no reference given; cited from earlier work"}, "[8]": {"tested_on": "NaV1.7", "conditions": "CAD cells; ref [20]; [21]; cited from earlier work"}, "[9]": {"molecular_target": "recombinant human CRMP2-His (collapsin response mediator protein 2) (human) (UniProt Q16555)", "test": "MST"}, "[10]": {"molecular_target": "recombinant human CRMP2-His (collapsin response mediator protein 2) (human) (UniProt Q16555)", "test": "MST", "remark": "listed apart in the source"}, "[11]": {"molecular_target": "recombinant human CRMP2-His (collapsin response mediator protein 2) (human) (UniProt Q16555)", "test": "MST", "remark": "listed apart in the source"}, "[12]": {"molecular_target": "recombinant human CRMP2-His (collapsin response mediator protein 2) (human) (UniProt Q16555)", "test": "MST", "remark": "listed apart in the source"}, "[13]": {"molecular_target": "recombinant human CRMP2-His (collapsin response mediator protein 2) (human) (UniProt Q16555)", "test": "AlphaScreen or HTRF"}, "[14]": {"molecular_target": "CRMP2", "test": "Microscale thermophoresis", "parameters": "species or system human", "conditions": "read-out: apparent Kd, Ubc9 binding to CRMP2; MST; Ubc9-GST 0.003-100 μM; NT-647 labeled CRMP2; PBS-T (0.05% Tween-20), room temperature, 10 min; no cofactor; mean ± SEM, n=3"}, "[15]": {"molecular_target": "Ubc9-CRMP2 interaction (Homo sapiens, UniProt P63279)", "test": "ALPHA assay, Ubc9-GST binding to CRMP2-His and its disruption", "conditions": "binding stable over at least this window"}, "[16]": {"tested_on": "SNI rats", "conditions": "rat, in vivo"}, "[17]": {"molecular_target": "Ubc9 (Homo sapiens, UniProt P63279)", "test": "MST, t-CSM binding to NT-647 labeled Ubc9"}}, "note": "Where “and” joins values, the source holds several entries; their conditions need not be identical. Identical values can stand only once. Like-named read-outs stand apart in the source and are kept apart here. Ends that are not written are not given here."}
{"compound": "COC[C@H](NC(C)=O)C(=O)NCc1ccccc1", "note": "[(S)-lacosamide]", "values": [{"measurement": "CRMP2 phosphorylation by Cdk5", "setting": "[1]", "result": "inhibiting phosphorylation by Cdk5"}, {"measurement": "thermal hypersensitivity and mechanical allodynia", "setting": "[2]", "result": "mitigation of thermal hypersensitivity and mechanical allodynia"}, {"measurement": "calcium influx", "setting": "[3]", "result": "decrease of calcium influx"}]}
{"compound": "C[C@@H]1O[C@@H](O[C@H]2C[C@@H](O)[C@]3(CO)[C@H]4[C@H](O)C[C@]5(C)[C@@H](C6=CC(=O)OC6)CC[C@]5(O)[C@@H]4CC[C@]3(O)C2)[C@H](O)[C@H](O)[C@H]1O", "note": "[Ouabain]", "values": [{"measurement": "effect on [Na+]c of ouabain alone", "setting": "[4]; ouabain 1 mM alone, SBFI", "result": "increase in [Na^+]c"}]}
{"compound": "NC1=N[C@H](O)[C@H]2[C@H]3O[C@]4(O)O[C@@H]([C@@H](O)[C@@]2(N1)[C@@H]4O)[C@]3(O)CO", "note": "[TTX, tetrodotoxin]", "values": [{"measurement": "ouabain-induced increase in [Na+]c", "setting": "[4]", "result": "inhibited"}]}
{"compound": "C[C@H]1Oc2cc3c(-c4c(O)cc(O)c5c(O)c6c(cc45)O[C@H](C)[C@@H](C)C6=O)c(O)cc(O)c3c(O)c2C(=O)[C@@H]1C", "note": "[chaetochromin A]", "values": [{"measurement": "inhibition of SUMOylation", "setting": "[5]; ref [35]", "result": "inhibitors of SUMOylation"}]}
{"compound": "NCC1(CC(=O)O)CCCCC1", "note": "[gabapentin]", "values": [{"measurement": "ability to remain on the rotating rod", "setting": "[6]; gabapentin, naïve rats, data not shown", "result": "decrease in the ability of naïve rats to remain on the rotating rod"}, {"measurement": "sedation in humans", "setting": "[7]", "result": "severe sedation in humans"}]}
{"compound": "C[C@@H]1O[C@@H](O[C@H]2[C@H](O)C[C@H](c3ccc4c(c3O)C(=O)C3=C(C4=O)[C@@]4(O[C@H]5CC[C@H](O)[C@H](C)O5)C(=O)C[C@](C)(O)C[C@@]4(O)C=C3)O[C@@H]2C)CC[C@@H]1O[C@H]1C[C@@H](O)[C@H](O)[C@@H](C)O1", "note": "[kerriamycin B]", "values": [{"measurement": "inhibition of SUMOylation", "setting": "[5]; ref [28]", "result": "inhibitors of SUMOylation"}]}
{"compound": "COC(=CC(=O)O)C1c2cc3ccc(-c4ccc5cc6c(c(O)c5c4O)C(=O)CC(C)(O)C6C(=CC(=O)O)OC)c(O)c3c(O)c2C(=O)CC1(C)O", "note": "(stereo not shown) [spectomycin B1]", "values": [{"measurement": "inhibition of SUMOylation", "setting": "[5]; ref [35]", "result": "inhibitors of SUMOylation"}]}
{"compound": "COC1=C(c2c(OC)cc3cc4c(c(O)c3c2O)C(=O)O[C@H](C)C4)C(=O)c2c(cc3c(c2O)C(=O)O[C@H](C)C3)C1=O", "note": "[viomellein]", "values": [{"measurement": "inhibition of SUMOylation", "setting": "[5]; ref [35]", "result": "inhibitors of SUMOylation"}]}
{"compound": "Huwentoxin-IV", "values": [{"measurement": "contribution of NaV1.7 to total sodium currents by isoform-specific blockade", "setting": "[8]", "result": "~ 80%"}]}
{"compound": "Ubc9-GST fusion protein (E2 SUMO-conjugating enzyme Ubc9) (from UniProt P63279 1-158)", "values": [{"measurement": "Kd", "setting": "[9]", "result": 7.6, "unit": "µM"}, {"measurement": "Kd", "setting": "[10]", "result": 26, "unit": "µM"}, {"measurement": "Kd", "setting": "[11]", "result": 25.5, "unit": "µM"}, {"measurement": "Kd", "setting": "[12]", "result": 12.2, "unit": "µM"}, {"measurement": "other", "setting": "[12]", "result": "80 µM and 137 µM"}, {"measurement": "Kd", "setting": "[13]", "result": 0.8, "unit": "µM"}]}
{"compound": "Ubc9: E2 SUMO-conjugating enzyme, recombinant Ubc9-GST fusion protein", "values": [{"measurement": "Kd", "setting": "[14]", "result": "12.2 ± 2.7", "unit": "µM"}, {"measurement": "stability of Ubc9-CRMP2 binding signal", "setting": "[15]", "result": "≥ 18", "unit": "h"}]}
{"compound": "YGRKKRRQRRRGKMDENQ [t-CSM]", "values": [{"measurement": "motor impairment or sedation", "setting": "[6]; rat, in vivo", "result": "no motor impairment or sedation"}, {"measurement": "time on rotarod", "setting": "[6]; rat, in vivo", "result": "180 ± 0", "unit": "s"}, {"measurement": "motor performance in SNI rats", "setting": "[16]", "result": "did not affect motor performance at any time point"}, {"measurement": "Kd", "setting": "[17]", "result": "0.4 ± 0.1", "unit": "µM"}]}
{"compound": "ginkgolic acid", "values": [{"measurement": "inhibition of SUMOylation", "setting": "[5]; ref [27]", "result": "inhibitors of SUMOylation"}]}
